Data from publication PMC7363885, “Fluorescent artificial receptor-based membrane assay (FARMA) for spatiotemporally resolved monitoring of biomembrane permeability” (Communications Biology, 2020).
“Also recorded” adds a separate entry of the source. Like-named read-outs stand apart in the source and are kept apart here.

How the values were obtained:
[1] = Aliquot analysis/flat lipid bilayer (macroscopic bilayer of brain phospholipids); cited from earlier work
[2] = FARMA: permeation of analytes into FAR-loaded liposomes (fluorescence, cuvette or stopped-flow); settings: for membrane permeability (in words): FARMA with FAR-loaded liposomes or GUVs
Description: Elementary physical parameters, such as permeability coefficients, can be extracted from the full kinetic FARMA data. This kinetic profile → parameter mapping requires some assumptions to be made in regard to the permeation mechanism. We applied a reported permeation model for liposomes[31] to arrive at permeation rate constants (kp) and apparent permeability coefficients (Papp). The derivation of the mathematical relation (1), linking the fundamental permeability rate constant and permeability coefficient to experimental measurable kobs rate constants, the known total analyte and total FAR concentration, and the experimentally determined liposome radius (r), is shown in the Supplementary Information.1 Papp=kp⋅r/3=kobs/canalyte⋅cFAR⋅r/3 […]
The volume-to-surface correction factor r/3 accounts for the fact that the observed rates depend on the size, i.e., radius r, of the liposomal assembly. […] The initial-rate method can also be applied, see the Supplementary Information. Moreover, kobs/canalyte can be estimated by single-point measurements at selected canalyte concentration.
A solution of 2.5 mg/mL of POPC and 0.33 mg/mL of POPS in chloroform was purged with nitrogen and dried overnight under […] vacuum. […] The resulting FAR-loaded liposomes were separated from non-encapsulated species by size-exclusion chromatography (NAP-25 column), while maintaining the same buffer. The absence of non-encapsulated FAR was confirmed by adding a non-membrane-permeable species such as tryptophan to a fluorescence cuvette containing 25 µL of liposomes diluted in 1 mL HEPES (10 mM) buffer. Complete removal of non-encapsulated FAR is indicated by the absence of a significant fluorescence change upon Trp addition.
In a typical experiment, 20 µL of liposome solution loaded with FAR was diluted in 1 mL HEPES buffer (10 mM, pH 7.0) in a 1 mL quartz cuvette. An emission spectrum was recorded after 10 min of “equilibration time” on a Varian Eclipse spectrofluorometer thermostated at 22 °C with a water bath using λexc = 400 nm for FAR-1, λexc = 310 nm for FAR-2, and λexc = 330 nm for FAR-3. In the time-resolved experiments, the emission intensity at λobs = 450 nm for FAR-1, λobs = 370 nm for FAR-2, and λobs = 370 and 500 nm for FAR-3 (the latter is the emerging excimer band for certain FAR-3•analyte complexes) was recorded with an averaging time of 0.5 s. […] For single-point experiments, a full spectrum was recorded after a fixed time or several time intervals after analyte addition. […] Only FAR-analyte combinations were used for FARMA, for which no significant autofluorescence and competitive light absorption of the analyte occurred.
For each experiment, measurements from 6 injections were accumulated and the average of these traces was used for data analysis.
Calculation of the unimolecular permeation rate constants ( kp) and of the apparent permeability coefficients (Papp).
The passive diffusion (permeation) of small non-charged compounds follows a modified Fick’s law and can be expressed by a first order kinetics.1 Similar to first order chemical reactions, the kinetics curve can therefore be fitted monoexponentially to obtained the observed permeation rates (kobs). In our assay set-up, such an exponential fit is an approximation, since it neglects that a certain fraction of transported analyte is bound to the FAR and cannot exit the liposome. Nevertheless, the fit of the kinetic curves of the […]
approximation is justified.

[3] = FARMA in DOPC:DOPS compared to POPC:POPS liposomes; type: in vitro ADME; settings: peer review file
Description: good choice since they give different degrees of packing of lipids. If the authors further utilize the liposomes for testing membrane permeability of some of the compounds appeared in the manuscript using FARMAs composed of such different types of lipids, the results would be informative for understanding relationships between permeability of compounds and lipid structures.
The FARMA method opens indeed a door for the systematic investigation of permeability in dependence on (i) different lipids, (ii) temperature, (iii) phase transitions, and (iv) additives. These studies are under way in our laboratories but we have now emphasized some key findings in regard to the transferability of the method:
- Investigation of additives: We show in the manuscript that different lipid composition are in princi-ple possible by adding cholesterol to the POPC and POPS membrane (Fig S7), causing a noticeable alteration of the permeation kinetics of tryptamine as a model analyte.
- Different lipid compositions: We have added a statement on page 10 (bottom) pointing to the possi-bility of preparing reporter-pair loaded liposomes with different lipid POPC:POPS compositions, ranging from 8:1 to 15:1 (our GUV preparations in the manuscript) to pure POPC (ref. 20 in the main […]

[4] = tested on: FAR-1; experiment: Fluorescence titration, FAR•analyte complex formation in homogeneous solution; type: binding; settings: FAR-1; 10 mM HEPES buffer (pH 7); 1:1 binding model; error estimate ≤ 20%
Procedure: Fluorescence titrations were carried out in aqueous HEPES buffer (10 mM, pH 7, 22 °C) unless stated otherwise. To a solution of the FAR (typically at 10–30 μM) was stepwise added a solution of the analyte (typically up to 2 mM) and the fluorescence spectra were recorded. The normalized emissions at 450 nm (FAR-1) or at 370 nm (FAR-2) were fitted with an equation for a 1 : 1 binding by a least-square fit. The resulting affinity constants are reported in Supplementary Table 1. Representative titration plots are shown in Supplementary Fig. 1. Note that the high CB8-dye binding affinities correspond to a near quantitative degree of host-dye complexation, i.e., quantitative formation of the FAR, such that the subsequent binding of the analyte can be treated independently.

[5] = End-point analysis/EPC liposomes; cited from earlier work
[6] = Dye displacement membrane assay (liposome-encapsulated host•dye ensembles); settings: dye displacement, CB7•BE-, CB8•MV•5OH-Trp- or CB8•MV•2,6-ANS-loaded liposomes
Description: Supplementary Figure 13 | Graphical representation of membrane assays using dye displacement for signaling. Diffusion of analytes through a lipid membrane is detected by displacement of the dye from (a) a host•dye or (b) a host•dye•quencher complex, leading to reduction or enhancement in emission intensity.
Supplementary Figure 14 | Membrane permeation monitoring of analytes by dye displacement. (a) Time-resolved changes in fluorescence intensity of CB7•BE-loaded liposomes (λexc = 347 nm, λobs = 500 nm) upon addition of the membrane-permeable analyte tyramine and membrane destabilizing peptide melittin.
(b) Evolution of fluorescence intensity after addition of dimethylbenzylamine (DMBA) to CB7•PAL-loaded liposomes (λexc = 347 nm, λobs = 500 nm). (c) Fluorescence response after addition of the […]
tryptophan to liposomes loaded with CB8•MV•2,6-ANS (λexc = 380 nm, λobs = 463 nm). […]
Combing equations S1 and S2, one arrives at Papp = kp∙(r/3) = kobs/canalyte∙cFAR∙(r/3) (equation 1 in main text)
Dye displacement membrane assay
Dye displacement membrane assays rely on selective encapsulation of reporter pairs inside liposomes and the reversible interaction between the receptor and the translocated analyte. To conduct the assay, liposomes containing the chemosensing ensemble composed of a macrocyclic host and a dye are prepared and purified, such that a subsequently added analyte affects the dye fluorescence only if it can enter the vesicle and displaces the dye from the macrocycle. Until now, only the dye displacement has been used as the signaling mechanism for tandem membrane assays,3, 4 whereby the competitive displacement of the dye from such host•dye complexes upon analyte addition restores the fluorescence features of the dye in solution, Supplementary Figures 13 - 14.
Specifically, this signaling mechanism has been mostly employed with macrocyclic host s with cavity space that is capable o f forming 1:1 complex es, e.g., cucurbit[7]uril (CB7) and the dyes berberine (BER) or palmatine (PAL), see Supplementary Figure 13a, or with p-sulfonato calix[4]arene (CX4) and lucigenin.3,4 Expanding the repertoire of chemosensors for tandem membrane assay s, we exploit herein also the ability of a larger macrocyclic host such as cucurbit[8]uril (CB8) to form 1:1:1 ternary complexes,5-7 and utilize here the quencher methyl viologen (MV) in combination with the fluorescent dyes 5-hydroxy tryptophan (5HO-Trp), 2-anilinonaphthalene -6-sulfonic acid (2,6-ANS) or dapoxyl sulfonic acid, sodium salt (DapoxS), Supplementary Figure 13b. Upon addition of an analyte, the fluorescent dye, the quencher or both the fluorescent dye and quencher are displaced from the CB8 cavity, which in each case is reflected by an increase in the emission intensity of the dye (switch -on displacement assay), Supplementary Figures 14- […]
The dye displacement signal strategy has two important disadvantages compared to the preferred fluorescent artificial receptor (FAR) assays:
(i) The dye displacement strategy is limited to strongly binding analytes, i.e., K(analyte) ≥ K(dye), otherwise a large excess concentration of analyte is needed to generate significant

[7] = tested on: Caco-2; settings: no passive permeation but active transport; cited from earlier work
[8] = PAMPA; cited from earlier work
[9] = Fluorescence quenching; cited from earlier work

SMILES	Papp Literature [1]	membrane permeability (in words) [2]	Papp at 16 µM ([2]; not told, pH 7)	permeation rate, factor lower for DOPC:DOPS compared to POPC:POPS liposomes [3]	Ka [4]	membrane permeability (in words) ([2]; listed as tryptophan)	Papp Literature [5]	membrane permeability (in words) [6]	Papp Literature [7]	Papp Literature [8]	Papp Literature [9]
NCCc1c[nH]c2ccc(O)cc12 [Serotonin, serotonin]	1.1 10^−6 cm s^−1	pass the membrane within several minutes to hours	0.004 ×10⁻⁶ cm/s	2-4	5 10^3 M−1	–	–	–	–	–	–
N[C@@H](Cc1c[nH]c2ccccc12)C(=O)O [Trp, tryptophan]	–	no permeation	–	–	150 10^3 M−1	non-permeating	0.00041 ×10⁻⁶ cm/s	impermeable	1.0 10^−6 cm s^−1	–	–
NCCc1c[nH]c2ccccc12 [Tryptamine, tryptamine]	6.7 10^−6 cm s^−1	slow permeation; also recorded: pass the membrane within several minutes to hours	–	–	50 10^3 M−1	–	–	slowly membrane permeable	–	5.4 10^−6 cm s^−1	0.33 10^−6 cm s^−1
